For experiment [1], the target named is T1, Cholecystokinin receptor type A (Cavia porcellus, UniProt Q63931).
T1 sequence (Q63931 whole entry): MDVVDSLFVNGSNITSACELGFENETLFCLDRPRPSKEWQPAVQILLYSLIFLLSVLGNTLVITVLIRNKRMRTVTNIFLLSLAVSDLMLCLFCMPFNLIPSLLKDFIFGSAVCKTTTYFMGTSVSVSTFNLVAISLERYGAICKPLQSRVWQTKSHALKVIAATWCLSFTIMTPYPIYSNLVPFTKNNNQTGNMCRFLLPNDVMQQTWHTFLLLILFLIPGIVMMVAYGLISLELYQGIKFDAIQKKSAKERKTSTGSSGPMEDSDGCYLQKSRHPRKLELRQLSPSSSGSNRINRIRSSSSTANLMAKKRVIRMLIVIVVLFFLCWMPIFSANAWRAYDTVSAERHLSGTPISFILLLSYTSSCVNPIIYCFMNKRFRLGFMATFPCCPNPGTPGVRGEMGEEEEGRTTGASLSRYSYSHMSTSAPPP
As to the kind of experiment: Displacement of [125I]Bolton-Hunter-CCK-8 from guinea pig pancreas Cholecystokinin type A receptor.

For experiment [2], the species on record is Cavia porcellus. As to the kind of experiment: Compound was evaluated for its ability to stimulate PI hydrolysis in guinea pig pancreas relative to maximal response elicited by CCK-8. Format: functional.

Regarding `Cc1ccccc1NC(=O)NCCCC[C@@H](CNN[C@@H](CC(=O)O)C(=O)N(C)[C@@H](Cc1ccccc1)C(N)=O)NC(=O)[C@H](Cc1c[nH]c2ccccc12)NC(=O)OC(C)(C)C`, in experiment [1], the IC50 (in general, the midpoint of a concentration-inhibition curve) is 1600 nM. The same molecule displayed a Max response in experiment [2] of 0%.
Turning to `Cc1ccccc1NC(=O)NCCCC[C@H](NNC[C@H](Cc1c[nH]c2ccccc12)NC(=O)OC(C)(C)C)C(=O)N[C@@H](CC(=O)O)C(=O)N[C@@H](Cc1ccccc1)C(N)=O`, in experiment [1], the IC50 was found to be 470 nM. This molecule gave a Max response in experiment [2] of 8.9%.
Take `CSCC[C@H](NC(=O)[C@H](Cc1c[nH]c2ccccc12)NC(=O)OC(C)(C)C)C(=O)N[C@@H](CC(=O)O)C(=O)N[C@@H](Cc1ccccc1)C(N)=O`: in experiment [2], the Max response was determined as 100%.
As for `CSCC[C@H](NC(=O)[C@H](Cc1ccc(OS(=O)(=O)O)cc1)NC(=O)[C@@H](N)CC(=O)O)C(=O)NCC(=O)N[C@@H](Cc1c[nH]c2ccccc12)C(=O)N[C@@H](CCSC)C(=O)N[C@@H](CC(=O)O)C(=O)N[C@@H](Cc1ccccc1)C(N)=O` [SINCALIDE], in experiment [2], the Max response was found to be 100%.
The molecule `Cc1ccccc1NC(=O)NCCCC[C@H](NC(=O)[C@H](Cc1c[nH]c2ccccc12)NC(=O)OC(C)(C)C)C(=O)N[C@H](CNN[C@@H](Cc1ccccc1)C(N)=O)CC(=O)O` displayed an IC50 in experiment [1] of 300 nM. This molecule also came in with a Max response in experiment [2] of 6.3%.
Turning to `CC(C)(C)OC(=O)N[C@@H](Cc1c[nH]c2ccccc12)C(=O)N[C@@H](CCCCNC(=O)/C=C\c1ccc(O)cc1)C(=O)N[C@H](CNN[C@@H](Cc1ccccc1)C(N)=O)CC(=O)O`, in experiment [1], the IC50 amounted to 130 nM. The same molecule gave a Max response in experiment [2] of 0%.
`CN(C(=O)[C@H](CC(=O)O)NNC[C@H](CCCCNC(=O)/C=C\c1ccc(O)cc1)NC(=O)[C@H](Cc1c[nH]c2ccccc12)NC(=O)OC(C)(C)C)[C@@H](Cc1ccccc1)C(N)=O` had an IC50 in experiment [1] of 250 nM. Further, in experiment [2], the Max response was determined as 28%.
Turning to `CC(C)(C)OC(=O)N[C@@H](Cc1c[nH]c2ccccc12)C(=O)N[C@@H](CCCCNC(=O)/C=C\c1ccc(O)cc1)CNN[C@@H](CC(=O)O)C(=O)N[C@@H](Cc1ccccc1)C(N)=O`, the IC50 in experiment [1] was found to be 40 nM. Also, the Max response in experiment [2] is recorded as 44%.
Molecule `CC(C)(C)OC(=O)N[C@H](CNN[C@@H](CCCCNC(=O)/C=C/c1ccc(O)cc1)C(=O)N[C@@H](CC(=O)O)C(=O)N[C@@H](Cc1ccccc1)C(N)=O)Cc1c[nH]c2ccccc12` had an IC50 in experiment [1] of 930 nM. This molecule registered a Max response in experiment [2] of 5.6%.

For the origin of these results see ChEMBL document CHEMBL1126470, “Toward developing peptidomimetics: Successful replacement of backbone amide bonds in tetrapeptide-based CCK-A receptor agonists” (Bioorg Med Chem Lett, 1993).
